Assay results reported in ChEMBL document CHEMBL5653615 (J Biol Chem, 2013).

Experiments:
[1] = target: Calcium/calmodulin-dependent protein kinase kinase 1 (Homo sapiens) (UniProt Q8N5S9); experiment: Inhibition of human CAMKK1 at 500 nM by HotSpot assay relative to control
[2] = target: T1, Phosphorylase b kinase gamma catalytic chain, liver/testis isoform (Homo sapiens) (UniProt P15735); experiment: Inhibition of human PHKg2 at 18.6 nM by HotSpot assay relative to control
T1 sequence (whole entry): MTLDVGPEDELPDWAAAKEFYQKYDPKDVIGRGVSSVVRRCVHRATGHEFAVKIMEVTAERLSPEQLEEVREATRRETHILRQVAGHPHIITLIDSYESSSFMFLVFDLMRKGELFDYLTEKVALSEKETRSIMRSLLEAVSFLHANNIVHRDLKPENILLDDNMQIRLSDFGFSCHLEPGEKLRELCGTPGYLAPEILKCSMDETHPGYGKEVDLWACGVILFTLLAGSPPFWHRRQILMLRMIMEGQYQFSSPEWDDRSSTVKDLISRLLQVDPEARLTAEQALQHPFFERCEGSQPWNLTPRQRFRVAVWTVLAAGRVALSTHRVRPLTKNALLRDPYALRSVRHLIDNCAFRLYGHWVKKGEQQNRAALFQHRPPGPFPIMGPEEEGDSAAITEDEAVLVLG

[3] = target: MAP kinase-interacting serine/threonine-protein kinase 2 (Homo sapiens) (UniProt Q9HBH9); experiment: Inhibition of human MNK2 at 18.6 nM by HotSpot assay relative to control
MAP kinase-interacting serine/threonine-protein kinase 2 (Homo sapiens), sequence (Q9HBH9 whole entry, looked up): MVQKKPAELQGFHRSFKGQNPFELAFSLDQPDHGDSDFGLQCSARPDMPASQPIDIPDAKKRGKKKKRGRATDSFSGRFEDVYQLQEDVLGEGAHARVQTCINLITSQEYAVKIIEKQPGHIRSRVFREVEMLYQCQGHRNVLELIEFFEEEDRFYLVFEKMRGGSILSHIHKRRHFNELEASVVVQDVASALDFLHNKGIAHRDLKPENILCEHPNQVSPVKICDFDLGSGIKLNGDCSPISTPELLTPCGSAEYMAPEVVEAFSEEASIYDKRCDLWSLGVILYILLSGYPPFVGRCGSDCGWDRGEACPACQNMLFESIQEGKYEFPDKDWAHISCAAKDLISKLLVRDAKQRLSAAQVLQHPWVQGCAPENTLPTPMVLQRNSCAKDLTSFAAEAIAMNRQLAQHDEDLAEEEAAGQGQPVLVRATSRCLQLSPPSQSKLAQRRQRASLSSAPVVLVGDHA

[4] = target: T2, Serine/threonine-protein kinase Sgk2 (Homo sapiens) (UniProt Q9HBY8); experiment: Inhibition of human SGK2 at 18.6 nM by HotSpot assay relative to control
T2 sequence (whole entry): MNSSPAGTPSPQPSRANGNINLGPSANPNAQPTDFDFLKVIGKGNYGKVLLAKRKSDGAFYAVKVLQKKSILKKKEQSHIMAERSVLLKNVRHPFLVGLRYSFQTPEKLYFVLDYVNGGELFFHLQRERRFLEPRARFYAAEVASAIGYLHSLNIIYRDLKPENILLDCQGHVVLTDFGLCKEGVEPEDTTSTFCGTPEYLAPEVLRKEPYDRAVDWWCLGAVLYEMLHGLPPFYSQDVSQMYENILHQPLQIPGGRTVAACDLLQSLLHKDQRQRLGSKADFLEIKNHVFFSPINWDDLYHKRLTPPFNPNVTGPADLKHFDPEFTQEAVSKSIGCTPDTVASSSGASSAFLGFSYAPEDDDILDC

[5] = target: Activated CDC42 kinase 1 (Homo sapiens) (UniProt Q07912); experiment: Inhibition of human ACK1 at 18.6 nM by HotSpot assay relative to control
Activated CDC42 kinase 1 (Homo sapiens), sequence (Q07912 whole entry, looked up): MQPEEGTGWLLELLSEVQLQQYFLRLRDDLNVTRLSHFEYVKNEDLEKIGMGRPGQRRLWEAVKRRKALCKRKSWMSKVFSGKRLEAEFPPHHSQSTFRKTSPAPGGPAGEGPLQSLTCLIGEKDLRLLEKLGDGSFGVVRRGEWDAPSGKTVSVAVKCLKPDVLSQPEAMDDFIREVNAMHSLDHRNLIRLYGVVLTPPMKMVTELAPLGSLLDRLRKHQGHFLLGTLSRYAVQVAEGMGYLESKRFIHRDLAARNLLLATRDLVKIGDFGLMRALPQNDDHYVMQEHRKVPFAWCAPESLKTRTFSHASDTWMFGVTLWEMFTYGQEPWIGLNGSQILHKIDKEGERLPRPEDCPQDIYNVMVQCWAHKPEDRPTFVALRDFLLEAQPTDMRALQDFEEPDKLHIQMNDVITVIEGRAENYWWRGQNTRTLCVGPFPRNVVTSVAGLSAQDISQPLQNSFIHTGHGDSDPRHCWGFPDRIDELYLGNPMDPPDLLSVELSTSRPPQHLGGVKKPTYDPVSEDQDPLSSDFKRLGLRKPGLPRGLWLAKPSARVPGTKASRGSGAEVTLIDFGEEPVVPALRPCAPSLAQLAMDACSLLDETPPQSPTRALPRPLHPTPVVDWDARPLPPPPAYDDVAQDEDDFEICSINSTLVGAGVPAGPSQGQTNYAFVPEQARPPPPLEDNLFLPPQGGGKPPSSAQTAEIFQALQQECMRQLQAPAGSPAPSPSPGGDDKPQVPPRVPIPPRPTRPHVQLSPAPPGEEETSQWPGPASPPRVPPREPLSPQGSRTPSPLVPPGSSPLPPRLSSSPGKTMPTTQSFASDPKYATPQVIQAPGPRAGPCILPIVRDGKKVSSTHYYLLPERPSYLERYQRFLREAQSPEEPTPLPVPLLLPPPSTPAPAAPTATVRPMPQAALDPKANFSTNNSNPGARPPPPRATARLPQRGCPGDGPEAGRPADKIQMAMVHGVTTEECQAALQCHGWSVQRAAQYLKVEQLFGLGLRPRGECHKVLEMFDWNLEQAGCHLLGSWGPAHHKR

[6] = target: T3, Serine/threonine-protein kinase D1 (Homo sapiens) (UniProt Q15139); experiment: Inhibition of human PRKD1 at 18.6 nM by HotSpot assay relative to control
T3 sequence (whole entry): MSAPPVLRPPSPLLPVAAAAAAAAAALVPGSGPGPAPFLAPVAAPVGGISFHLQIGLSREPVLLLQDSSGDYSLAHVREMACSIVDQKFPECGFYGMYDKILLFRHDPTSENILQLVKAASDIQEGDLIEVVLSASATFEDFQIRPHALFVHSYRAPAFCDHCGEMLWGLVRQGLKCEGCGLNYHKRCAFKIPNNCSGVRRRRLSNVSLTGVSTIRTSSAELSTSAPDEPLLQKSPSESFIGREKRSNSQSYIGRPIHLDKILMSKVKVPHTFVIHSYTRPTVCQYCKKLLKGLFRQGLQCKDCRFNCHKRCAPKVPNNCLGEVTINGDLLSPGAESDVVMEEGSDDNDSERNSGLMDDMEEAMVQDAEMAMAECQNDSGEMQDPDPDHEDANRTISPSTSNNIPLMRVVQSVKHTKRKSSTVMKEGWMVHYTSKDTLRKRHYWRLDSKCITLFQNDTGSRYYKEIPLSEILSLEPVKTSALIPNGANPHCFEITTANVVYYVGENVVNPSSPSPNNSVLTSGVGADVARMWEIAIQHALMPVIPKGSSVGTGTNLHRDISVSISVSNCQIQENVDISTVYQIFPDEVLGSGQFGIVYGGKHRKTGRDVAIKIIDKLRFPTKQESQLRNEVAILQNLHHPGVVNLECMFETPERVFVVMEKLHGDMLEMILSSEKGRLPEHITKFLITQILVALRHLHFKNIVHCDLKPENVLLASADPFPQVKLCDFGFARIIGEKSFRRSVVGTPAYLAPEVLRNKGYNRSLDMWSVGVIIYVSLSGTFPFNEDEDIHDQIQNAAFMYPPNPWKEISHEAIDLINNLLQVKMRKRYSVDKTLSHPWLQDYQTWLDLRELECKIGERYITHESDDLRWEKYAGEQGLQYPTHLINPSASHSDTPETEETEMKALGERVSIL

[7] = target: TGF-beta receptor type-2 (Homo sapiens) (UniProt P37173); experiment: Inhibition of human TGFBR2 at 18.6 nM by HotSpot assay relative to control
TGF-beta receptor type-2 (Homo sapiens), sequence (P37173 whole entry): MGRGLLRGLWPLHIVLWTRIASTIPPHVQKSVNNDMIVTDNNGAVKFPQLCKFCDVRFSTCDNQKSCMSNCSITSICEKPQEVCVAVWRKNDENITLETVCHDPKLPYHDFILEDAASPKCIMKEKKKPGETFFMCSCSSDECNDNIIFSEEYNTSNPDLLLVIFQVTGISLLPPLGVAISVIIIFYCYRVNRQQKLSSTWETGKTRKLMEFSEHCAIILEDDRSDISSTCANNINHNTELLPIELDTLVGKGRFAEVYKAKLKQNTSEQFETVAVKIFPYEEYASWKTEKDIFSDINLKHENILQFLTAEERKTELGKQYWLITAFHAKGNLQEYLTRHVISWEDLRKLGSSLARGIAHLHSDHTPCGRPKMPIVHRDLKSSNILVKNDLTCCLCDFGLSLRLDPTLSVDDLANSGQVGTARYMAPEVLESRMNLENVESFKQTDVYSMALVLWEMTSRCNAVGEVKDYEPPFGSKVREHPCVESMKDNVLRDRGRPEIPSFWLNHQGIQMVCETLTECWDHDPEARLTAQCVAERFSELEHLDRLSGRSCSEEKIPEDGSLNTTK

[8] = target: T4, Rhodopsin kinase GRK7 (Homo sapiens) (UniProt Q8WTQ7); experiment: Inhibition of human GRK7 at 18.6 nM by HotSpot assay relative to control
T4 sequence (whole entry): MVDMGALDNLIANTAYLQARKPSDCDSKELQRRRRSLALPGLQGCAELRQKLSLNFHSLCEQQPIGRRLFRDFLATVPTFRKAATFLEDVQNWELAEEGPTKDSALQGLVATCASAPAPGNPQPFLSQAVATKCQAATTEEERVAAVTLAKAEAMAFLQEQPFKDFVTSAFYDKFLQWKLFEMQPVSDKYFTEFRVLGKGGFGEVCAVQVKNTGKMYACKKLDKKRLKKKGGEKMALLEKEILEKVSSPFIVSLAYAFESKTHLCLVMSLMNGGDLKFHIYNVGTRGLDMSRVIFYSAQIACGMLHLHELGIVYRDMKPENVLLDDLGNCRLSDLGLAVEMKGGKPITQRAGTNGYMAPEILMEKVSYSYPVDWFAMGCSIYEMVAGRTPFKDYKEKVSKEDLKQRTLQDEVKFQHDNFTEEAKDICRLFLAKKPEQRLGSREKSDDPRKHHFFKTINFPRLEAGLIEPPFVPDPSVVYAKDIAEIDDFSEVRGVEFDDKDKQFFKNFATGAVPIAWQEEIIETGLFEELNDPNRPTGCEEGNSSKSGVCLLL

[9] = target: Platelet-derived growth factor receptor beta (Homo sapiens) (UniProt P09619); experiment: Inhibition of human PDGFRb at 18.6 nM by HotSpot assay relative to control
Platelet-derived growth factor receptor beta (Homo sapiens), sequence (P09619 whole entry): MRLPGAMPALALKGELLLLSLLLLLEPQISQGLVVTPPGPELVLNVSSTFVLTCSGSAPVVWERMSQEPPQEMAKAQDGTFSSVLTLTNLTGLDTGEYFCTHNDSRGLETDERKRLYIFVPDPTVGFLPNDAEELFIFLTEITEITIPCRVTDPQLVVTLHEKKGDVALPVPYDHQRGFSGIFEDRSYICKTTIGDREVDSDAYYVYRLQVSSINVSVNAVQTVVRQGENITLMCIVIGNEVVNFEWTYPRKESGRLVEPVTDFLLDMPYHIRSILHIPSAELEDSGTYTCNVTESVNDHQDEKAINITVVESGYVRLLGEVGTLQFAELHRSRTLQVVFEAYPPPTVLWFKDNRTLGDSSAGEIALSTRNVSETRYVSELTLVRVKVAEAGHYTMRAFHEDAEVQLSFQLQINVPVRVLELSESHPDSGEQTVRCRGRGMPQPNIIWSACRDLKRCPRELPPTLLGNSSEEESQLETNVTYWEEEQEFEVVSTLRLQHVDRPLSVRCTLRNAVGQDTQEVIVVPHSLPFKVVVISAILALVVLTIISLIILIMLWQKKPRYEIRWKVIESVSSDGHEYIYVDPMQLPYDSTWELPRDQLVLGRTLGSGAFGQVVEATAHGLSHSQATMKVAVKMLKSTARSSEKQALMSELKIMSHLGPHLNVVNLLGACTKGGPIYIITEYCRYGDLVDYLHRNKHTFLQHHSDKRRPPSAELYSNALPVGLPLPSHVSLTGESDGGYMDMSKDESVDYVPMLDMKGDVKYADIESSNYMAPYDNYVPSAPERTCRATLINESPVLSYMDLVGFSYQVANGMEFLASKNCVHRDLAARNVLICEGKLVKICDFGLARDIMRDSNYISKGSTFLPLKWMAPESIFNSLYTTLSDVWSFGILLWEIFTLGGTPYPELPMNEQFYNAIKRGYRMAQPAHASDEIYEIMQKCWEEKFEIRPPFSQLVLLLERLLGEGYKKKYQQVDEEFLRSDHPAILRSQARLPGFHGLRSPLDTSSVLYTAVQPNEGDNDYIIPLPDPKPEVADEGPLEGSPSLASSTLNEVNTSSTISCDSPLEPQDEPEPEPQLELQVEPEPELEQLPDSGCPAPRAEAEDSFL

[10] = target: Cyclin-dependent kinase 2/cyclin E1 (Homo sapiens) (UniProt P24864+P24941); experiment: Inhibition of human CDK2/cyclin E at 1.82 nM by HotSpot assay relative to control; type: protein-complex assay
[11] = target: Proto-oncogene tyrosine-protein kinase ROS (Homo sapiens) (UniProt P08922); experiment: Inhibition of human ROS1 at 1.82 nM by HotSpot assay relative to control
[12] = target: MAP kinase-interacting serine/threonine-protein kinase 1 (Homo sapiens) (UniProt Q9BUB5); experiment: Inhibition of human MNK1 at 1.82 nM by HotSpot assay relative to control
MAP kinase-interacting serine/threonine-protein kinase 1 (Homo sapiens), sequence (Q9BUB5 whole entry, looked up): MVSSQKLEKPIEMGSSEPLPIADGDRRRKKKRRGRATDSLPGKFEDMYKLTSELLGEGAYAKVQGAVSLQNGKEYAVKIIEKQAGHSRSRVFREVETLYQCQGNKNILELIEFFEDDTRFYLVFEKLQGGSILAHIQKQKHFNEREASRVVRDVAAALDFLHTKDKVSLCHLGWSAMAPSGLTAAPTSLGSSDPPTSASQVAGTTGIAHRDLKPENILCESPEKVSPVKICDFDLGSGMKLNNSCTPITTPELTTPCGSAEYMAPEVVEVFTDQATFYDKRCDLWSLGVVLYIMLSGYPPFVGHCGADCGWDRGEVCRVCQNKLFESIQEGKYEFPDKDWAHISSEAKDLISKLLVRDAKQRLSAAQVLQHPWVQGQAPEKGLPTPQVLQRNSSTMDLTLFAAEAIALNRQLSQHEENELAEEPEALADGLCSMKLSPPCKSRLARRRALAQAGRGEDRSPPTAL

Calcium/calmodulin-dependent protein kinase kinase 1 (Homo sapiens), sequence (Q8N5S9 whole entry, looked up, canonical isoform): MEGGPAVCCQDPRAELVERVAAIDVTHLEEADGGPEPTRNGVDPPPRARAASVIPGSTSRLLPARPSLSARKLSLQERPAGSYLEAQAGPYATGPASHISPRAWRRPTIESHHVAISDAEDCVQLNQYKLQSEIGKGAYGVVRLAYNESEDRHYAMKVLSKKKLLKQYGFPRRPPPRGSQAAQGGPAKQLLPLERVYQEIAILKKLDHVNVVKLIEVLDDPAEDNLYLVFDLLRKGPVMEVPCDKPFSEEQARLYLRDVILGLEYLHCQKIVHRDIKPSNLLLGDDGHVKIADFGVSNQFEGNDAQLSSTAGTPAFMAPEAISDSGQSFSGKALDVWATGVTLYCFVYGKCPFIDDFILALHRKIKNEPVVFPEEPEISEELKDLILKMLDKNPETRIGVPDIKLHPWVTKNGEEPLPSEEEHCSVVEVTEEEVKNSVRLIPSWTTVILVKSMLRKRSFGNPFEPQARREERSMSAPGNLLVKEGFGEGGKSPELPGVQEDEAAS

## Oc1n[nH]c2nnc(-c3c(-c4ccccc4)nn4ccccc34)cc12
[1]
  inhibition: -9.31%

## C[C@]1(O)C[C@@H](c2nc(-c3ccc4ccc(-c5ccccc5)nc4c3)c3c(N)nccn32)C1
[2]
  inhibition: -2.29%
[3]
  inhibition: -3.65%
[4]
  inhibition: -3.95%
[5]
  inhibition: 3%
[6]
  inhibition: -2.06%
[7]
  inhibition: 8.98%
[8]
  inhibition: 0.1%
[9]
  inhibition: 8.57%

## C[C@@]1(C(=O)Nc2ccc(F)nc2)CCCN1c1nc(Nc2cc(C3CC3)n[nH]2)c2cccn2n1
[10]
  inhibition: 3.51%
[11]
  inhibition: 73.5%
[12]
  inhibition: 5.01%
